Laboratory results published in PubChem BioAssay AID2060513 (Molecular Pharmacology Branch, DTP, NCI, 2025).

Test system: 299254-011-R-J1-PDC complex spheroids viability
Test: Anticancer human tumor 299254-011-R-J1-PDC patient-derived melanoma cell line growth inhibition [GQUAD]
Details: for IC50: curve of first compound; for viability, T/C: stronger effect = lower value
Source text: DNA G-quadruplex Stabilizer Agents in Combinations in Complex Spheroids
A high-throughput screen of multi-cell type tumor spheroids was designed to identify active combinations of DNA G-quadruplex stabilizer agents and targeted small molecules. Complex spheroids include a stromal component modeled by human endothelial cells (HUVEC) and fibroblasts modeled by human mesenchymal stem cells (MSCs). The concentration ranges selected for each drug and investigational agent were based upon clinically achievable concentrations if the clinical Cmax of the agent was known.
Compounds. The drugs and investigational agents: pidnarulex (CX-5461; NSC782164), APTO-253 (NSC789042), BRACO-19 (NSC847499), peposertib (NSC802822), ceralasertib (NSC780249), elimusertib (NSC800525), camonsertib (NSC841442), AZD-1390 (NSC803789), olaparib (NSC753686), talazoparib (NSC767125), ART-558 (NSC835418), sotorasib (NSC818433), MRTX-1133 (NSC836407), SN-38 (NSC673596), topotecan (NSC609699), etoposide (NSC141540), doxorubicin (NSC123127), gemcitabine (NSC613327), 5-fluorouracil (NSC19893), paclitaxel (NSC125973), vemurafenib (NSC761431), panobinostat (NSC761190), R-306465 (JNJ-16241199; NSC773264), adavosertib (NSC754352), TP-3654 (NSC805149), carboplatin (NSC241240), KSQ-4279 (NSC840948), and staurosporine (NSC755774) were obtained from the National Cancer Institute (NCI) Developmental Therapeutics Program Chemical Repository (34). The FDA-approved anticancer drug set is available from the NCI Developmental Therapeutics Program. […] The stock solutions were prepared in dimethyl sulfoxide (DMSO, Sigma-Aldrich, St. Louis, MO, cat. D2650) at 800-fold the tested concentration and stored at -70 degrees C prior to their use. All drugs and investigational agents were tested over a range starting from a high concentration at or near the clinical Cmax and decreasing in half-log increments. If the clinical Cmax for an agent had not been determined, the highest concentration tested was 10 microM.
2.3 Cell Culture. All cells were maintained in an incubator at 37 degrees C and 5% CO2 with 95% humidity. The PDC lines were cultured according to standard operating procedures established by the NCI PDMR. All PDCs were thawed and cultured in Matrigel-coated flasks prepared with a working solution of 1X Ham's F-12 nutrient mix, without supplementation (Invitrogen, cat. 11765054), 100 U/mL penicillin-streptomycin (Invitrogen, cat. 15140122), and 2.5% Matrigel (Corning Inc., cat. 354248) for the first three passages. The 857933-349-R-J2-PDC line was cultured in 6C/Colon 1B media, which includes advanced DMEM/F-12 (Thermo Fisher Scientific, cat. 12634028), 10 mM HEPES (Thermo Fisher Scientific, cat. 15630080), 1X GlutaMAX supplement (Thermo Fisher Scientific, cat. 35050061), 0.1 mg/mL primocin (InvivoGen, cat. ant-pm-2), 10% defined fetal bovine serum, heat inactivated (HyClone Laboratories Inc., cat. SH30070.03HI), 50% L-WRN conditioned media (ATCC, cat. CRL-3276), 1.25 mM N-Acetyl-L-cysteine (Sigma-Aldrich, cat. A9165), 10 mM nicotinamide (Sigma-Aldrich, cat. N0636), 1X B-27 supplement (Thermo Fisher Scientific, cat. 17504044), 1X N-2 supplement (Thermo Fisher Scientific, cat. 17502048), 10 microM Y-27632 dihydrochloride (Tocris Bioscience, cat. 1254), and 50 ng/mL human EGF recombinant protein (Thermo Fisher Scientific, cat. PHG0311). The 485176-168-R4-J1-PDC line was cultured in Panc media, which includes all 6C/Colon 1B media components plus 100 ng/mL human FGF-10 (Thermo Fisher Scientific, cat. 100-26), 500 nM SB-431542 (Selleckchem, cat. S1067), and gastrin (Tocris, cat. 3006).
[…]

[1] = second compound 0.0316 µM, first compound 0.0316 µM
[2] = second compound 0.0316 µM, first compound 0.316 µM
[3] = second compound 0.1 µM, first compound 0.0316 µM
[4] = second compound 0.1 µM, first compound 0.316 µM
[5] = second compound 0.316 µM, first compound 0.0316 µM
[6] = second compound 0.316 µM, first compound 0.316 µM
[7] = second compound 1 µM, first compound 0.0316 µM
[8] = second compound 1 µM, first compound 0.316 µM
[9] = second compound 3.16 µM, first compound 0.0316 µM
[10] = second compound 3.16 µM, first compound 0.316 µM
[11] = second compound 10 µM, first compound 0.0316 µM
[12] = second compound 10 µM, first compound 0.316 µM
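Note: spheroids exposed to the agents for seven days before readout.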
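Throughout, for viability, T/C: percent viability relative to DMSO vehicle control wells = 100%.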

## CCc1c2c(nc3ccc(O)cc13)-c1cc3c(c(=O)n1C2)COC(=O)[C@]3(O)CC + Cc1[nH]c2ccc(F)cc2c1-c1nc2c3cccnc3c3ncccc3c2[nH]1
Second compound 0.0316 µM
  IC50: > 316 nM
Second compound 0.1 µM
  IC50: > 316 nM
Second compound 0.316 µM
  IC50: > 316 nM
Second compound 1 µM
  IC50: > 316 nM
Second compound 3.16 µM
  IC50: > 316 nM
Second compound 10 µM
  IC50: > 316 nM
Second compound 0.0316 µM, first compound 0.000999 µM
  viability, T/C: 106%
Second compound 0.0316 µM, first compound 0.00316 µM
  viability, T/C: 88.8%
Second compound 0.0316 µM, first compound 0.00999 µM
  viability, T/C: 73.2%
[1]
  viability, T/C: 73.7%
Second compound 0.0316 µM, first compound 0.0999 µM
  viability, T/C: 79.6%
[2]
  viability, T/C: 66.1%
Second compound 0.1 µM, first compound 0.000999 µM
  viability, T/C: 108%
Second compound 0.1 µM, first compound 0.00316 µM
  viability, T/C: 117%
Second compound 0.1 µM, first compound 0.00999 µM
  viability, T/C: 85.4%
[3]
  viability, T/C: 90.2%
Second compound 0.1 µM, first compound 0.0999 µM
  viability, T/C: 79.6%
[4]
  viability, T/C: 64.8%
Second compound 0.316 µM, first compound 0.000999 µM
  viability, T/C: 91.1%
Second compound 0.316 µM, first compound 0.00316 µM
  viability, T/C: 117%
Second compound 0.316 µM, first compound 0.00999 µM
  viability, T/C: 69.2%
[5]
  viability, T/C: 84.2%
Second compound 0.316 µM, first compound 0.0999 µM
  viability, T/C: 88.2%
[6]
  viability, T/C: 70.2%
Second compound 1 µM, first compound 0.000999 µM
  viability, T/C: 105%
Second compound 1 µM, first compound 0.00316 µM
  viability, T/C: 92.7%
Second compound 1 µM, first compound 0.00999 µM
  viability, T/C: 94.2%
[7]
  viability, T/C: 77.5%
Second compound 1 µM, first compound 0.0999 µM
  viability, T/C: 84%
[8]
  viability, T/C: 68.6%
Second compound 3.16 µM, first compound 0.000999 µM
  viability, T/C: 102%
Second compound 3.16 µM, first compound 0.00316 µM
  viability, T/C: 114%
Second compound 3.16 µM, first compound 0.00999 µM
  viability, T/C: 75.7%
[9]
  viability, T/C: 80.7%
Second compound 3.16 µM, first compound 0.0999 µM
  viability, T/C: 79.9%
[10]
  viability, T/C: 72.2%
Second compound 10 µM, first compound 0.000999 µM
  viability, T/C: 96.1%
Second compound 10 µM, first compound 0.00316 µM
  viability, T/C: 94.4%
Second compound 10 µM, first compound 0.00999 µM
  viability, T/C: 80.7%
[11]
  viability, T/C: 76.8%
Second compound 10 µM, first compound 0.0999 µM
  viability, T/C: 60.1%
[12]
  viability, T/C: 58.8%

## CC1COCCN1c1cc(C2(S(C)(=N)=O)CC2)nc(-c2ccnc3[nH]ccc23)n1 (centres undefined) + Cc1[nH]c2ccc(F)cc2c1-c1nc2c3cccnc3c3ncccc3c2[nH]1
Second compound 0.0316 µM
  IC50: 2910 nM
Second compound 0.1 µM
  IC50: 5580 nM
Second compound 0.316 µM
  IC50: 4710 nM
Second compound 1 µM
  IC50: 4530 nM
Second compound 3.16 µM
  IC50: 3170 nM
Second compound 10 µM
  IC50: 2460 nM
[1]
  viability, T/C: 105%
Second compound 0.0316 µM, first compound 0.1 µM
  viability, T/C: 86.6%
[2]
  viability, T/C: 110%
Second compound 0.0316 µM, first compound 1 µM
  viability, T/C: 67.8%
Second compound 0.0316 µM, first compound 3.16 µM
  viability, T/C: 53.6%
Second compound 0.0316 µM, first compound 10 µM
  viability, T/C: 31.8%
[3]
  viability, T/C: 85%
Second compound 0.1 µM, first compound 0.1 µM
  viability, T/C: 95.9%
[4]
  viability, T/C: 100%
Second compound 0.1 µM, first compound 1 µM
  viability, T/C: 87.4%
Second compound 0.1 µM, first compound 3.16 µM
  viability, T/C: 64%
Second compound 0.1 µM, first compound 10 µM
  viability, T/C: 35.8%
[5]
  viability, T/C: 78.7%
Second compound 0.316 µM, first compound 0.1 µM
  viability, T/C: 96.4%
[6]
  viability, T/C: 114%
Second compound 0.316 µM, first compound 1 µM
  viability, T/C: 87.9%
Second compound 0.316 µM, first compound 3.16 µM
  viability, T/C: 64.2%
Second compound 0.316 µM, first compound 10 µM
  viability, T/C: 24%
[7]
  viability, T/C: 91%
Second compound 1 µM, first compound 0.1 µM
  viability, T/C: 90.3%
[8]
  viability, T/C: 96.1%
Second compound 1 µM, first compound 1 µM
  viability, T/C: 111%
Second compound 1 µM, first compound 3.16 µM
  viability, T/C: 59.4%
Second compound 1 µM, first compound 10 µM
  viability, T/C: 29.3%
[9]
  viability, T/C: 108%
Second compound 3.16 µM, first compound 0.1 µM
  viability, T/C: 99.2%
[10]
  viability, T/C: 97.7%
Second compound 3.16 µM, first compound 1 µM
  viability, T/C: 97.1%
Second compound 3.16 µM, first compound 3.16 µM
  viability, T/C: 50%
Second compound 3.16 µM, first compound 10 µM
  viability, T/C: 18%
[11]
  viability, T/C: 127%
Second compound 10 µM, first compound 0.1 µM
  viability, T/C: 83%
[12]
  viability, T/C: 97.5%
Second compound 10 µM, first compound 1 µM
  viability, T/C: 92%
Second compound 10 µM, first compound 3.16 µM
  viability, T/C: 38.3%
Second compound 10 µM, first compound 10 µM
  viability, T/C: 14.1%
